Laboratory results as given in ChEMBL document CHEMBL1137961, “Benzimidazolone p38 inhibitors” (Bioorg Med Chem Lett, 2004).

target: Mitogen-activated protein kinase 14 (Homo sapiens, UniProt Q16539); test: Inhibitory activity against mitogen activated protein (MAP) kinase p38 alpha.
Sequence (Q16539 whole entry): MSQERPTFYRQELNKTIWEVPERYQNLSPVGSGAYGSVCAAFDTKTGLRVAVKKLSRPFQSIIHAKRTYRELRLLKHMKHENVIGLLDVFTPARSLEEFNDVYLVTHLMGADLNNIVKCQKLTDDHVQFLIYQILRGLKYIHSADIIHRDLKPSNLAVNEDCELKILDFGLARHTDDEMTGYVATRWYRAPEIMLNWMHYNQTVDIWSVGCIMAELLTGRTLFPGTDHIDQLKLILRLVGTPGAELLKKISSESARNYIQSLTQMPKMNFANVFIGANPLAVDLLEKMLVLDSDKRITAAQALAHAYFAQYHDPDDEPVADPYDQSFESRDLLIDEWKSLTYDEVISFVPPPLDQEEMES

| IC50 | SMILES |
| --- | --- |
| 680 nM | Cn1c(=O)n(C)c2cc(-c3[nH]c(-c4cccs4)nc3-c3ccc(Cl)cc3)ccc21 |
| 290 nM | Cn1c(=O)n(C)c2cc(-c3[nH]cnc3-c3ccccc3)ccc21 |
| 1800 nM | Cc1ccc(-c2nc(-c3cccs3)[nH]c2-c2ccc3c(c2)n(C)c(=O)n3C)cc1 |
| 500 nM | CCc1cccc(-c2[nH]c(-c3cccs3)nc2-c2ccc3c(c2)n(C)c(=O)n3C)c1 |
| > 1000 nM | CCn1c(=O)n(CC)c2cc(-n3nnnc3-c3ccc(F)c(C)c3)ccc21 |
| 800 nM | CCn1c(=O)n(CC)c2cc(-c3ocnc3-c3cccc(C)c3)ccc21 |
| 90 nM | CCn1c(=O)n(CC)c2cc(-c3c(-c4ccc(F)cc4)ncn3C3CCNCC3)ccc21 |
| 690 nM | CCn1c(=O)n(CC)c2cc(-c3ccnn3-c3cccc(C)c3)ccc21 |
| 4000 nM | Cn1c(=O)n(C)c2cc(-c3[nH]c(-c4ccc([S+](C)[O-])cc4)nc3-c3ccc(F)cc3)ccc21 (stereo not given) |
| 12500 nM | Cc1cccc(-c2nncn2-c2ccc3c(c2)n(C)c(=O)n3C)c1 |
| 60 nM | CCn1c(=O)n(CC)c2cc(-c3c[nH]nc3-c3cccc(C(F)(F)F)c3)ccc21 |
| 730 nM | CCn1c(=O)n(CC)c2cc(-c3n[nH]cc3-c3cccc(C)c3)ccc21 |
| 8000 nM | CCc1ccc(-c2[nH]c(-c3cccs3)nc2-c2ccc3c(c2)n(C)c(=O)n3C)cc1 |
| 380 nM | Cn1c(=O)n(C)c2cc(-c3[nH]c(-c4cccs4)nc3-c3cccc(Cl)c3)ccc21 |
| 200 nM | CCn1c(=O)n(CC)c2cc(-c3c[nH]nc3-c3ccccc3)ccc21 |
| 680 nM | CCn1c(=O)n(CC)c2cc(-c3n[nH]cc3-c3ccccc3)ccc21 |
| 1250 nM | CCn1c(=O)n(CC)c2cc(-c3c(-c4cccc(C)c4)nc(C4CCNCC4)n3C)ccc21 |
| 140 nM | Cc1cccc(-c2nc(-c3cccs3)[nH]c2-c2ccc3c(c2)n(C)c(=O)n3C)c1 |
| 14400 nM | Cc1cccc(-n2cncc2-c2ccc3c(c2)n(C)c(=O)n3C)c1 |
| 30 nM | CCn1c(=O)n(CC)c2cc(-c3c[nH]nc3-c3ccc(F)c(C)c3)ccc21 |
| 15800 nM | Cn1c(=O)n(C)c2cc(-c3[nH]c(-c4cccs4)nc3-c3cccc(OC(F)(F)F)c3)ccc21 |
| > 1000 nM | CCn1c(=O)n(CC)c2cc(-c3cccnc3-c3cccc(C)c3)ccc21 |
| 100 nM | Cc1cccc(-c2nc[nH]c2-c2ccc3c(c2)n(C)c(=O)n3C)c1 |

| IC50 | SMILES |
| --- | --- |
| 260 nM | Cc1cccc(-c2[nH]c3nc(N)ccc3c2-c2ccc3c(c2)n(C)c(=O)n3C)c1 |
| > 32000 nM | CC(C)c1cccc(-c2[nH]c(-c3cccs3)nc2-c2ccc3c(c2)n(C)c(=O)n3C)c1 |
| > 1000 nM | CCn1c(=O)n(CC)c2cc(-c3cc(-c4cccnc4)[nH]c3-c3cccc(C)c3)ccc21 |
| 6200 nM | Cc1ccccc1-c1nc(-c2cccs2)[nH]c1-c1ccc2c(c1)n(C)c(=O)n2C |
| 540 nM | Cn1c(=O)n(C)c2cc(-c3[nH]c(-c4cccs4)nc3-c3ccccc3Cl)ccc21 |
| 200 nM | Cc1cccc(-c2nc(-c3cccnc3)[nH]c2-c2ccc3c(c2)n(C)c(=O)n3C)c1 |
| 9 nM | CCn1c(=O)n(CC)c2cc(-c3c[nH]nc3-c3cccc(C)c3)ccc21 |
| 390 nM | Cn1c(=O)n(C)c2cc(-c3[nH]c(-c4cccs4)nc3-c3cccc(F)c3)ccc21 |
| 100 nM | CCn1c(=O)n(CC)c2cc(-c3[nH]cnc3-c3ccc(F)cc3)ccc21 |
| > 1000 nM | CCn1c(=O)n(CC)c2cc(-c3nnnn3-c3ccc(F)c(C)c3)ccc21 |
| 70 nM | CCn1c(=O)n(CC)c2cc(-c3[nH]c(-c4cccnc4)nc3-c3cccc(C)c3)ccc21 |
| 140 nM | Cn1c(=O)n(C)c2cc(-c3[nH]cnc3-c3ccc(F)cc3)ccc21 |
| 2500 nM | Cn1c(=O)n(C)c2cc(-c3n[nH]cc3-c3ccccc3)ccc21 |
| 260 nM | Cn1c(=O)n(C)c2cc(-c3[nH]c(-c4cccs4)nc3-c3ccccc3)ccc21 |
| 200 nM | Cn1c(=O)n(C)c2cc(-c3c[nH]nc3-c3ccccc3)ccc21 |
| 270 nM | Cn1c(=O)n(C)c2cc(-c3[nH]c(-c4cccs4)nc3-c3ccc(F)cc3)ccc21 |
| 70 nM | Cc1cccc(-c2nc(C3CCNCC3)[nH]c2-c2ccc3c(c2)n(C)c(=O)n3C)c1 |
| 1500 nM | Cn1c(=O)n(C)c2cc(-c3[nH]c(-c4cccs4)nc3-c3cccc(C(F)(F)F)c3)ccc21 |
| > 1000 nM | CCn1c(=O)n(CC)c2cc(-c3c[nH]cn3)ccc21 |
| 370 nM | Cn1c(=O)n(C)c2cc(-c3[nH]c(-c4cccs4)nc3-c3ccccc3F)ccc21 |
| 140 nM | CCn1c(=O)n(CC)c2cc(-c3[nH]cnc3-c3ccccc3)ccc21 |
| 50 nM | CCn1c(=O)n(CC)c2cc(-c3[nH]cnc3-c3cccc(C)c3)ccc21 |
